Results from US8088892B2, “Inhibitors of proteins from the Rho-GEF family” (Centre National de la Recherche Scientifique (C.N.R.S.), priority 2002, dated 2012).
Where no end group is shown, it is not given here.

Experiments:
Type in all cases: cell-based
[1] = system: ectopically expressed TrioGEFD2 in PC12 cells; test: NGF-induced neurite outgrowth in PC12 cells expressing TrioGEFD2; details: PC12 co-transfected with TrioGEFD2, NGF 50 ng/ml 16 hours
Method: FIG. 5C represents the inhibition by TRIPα of the TrioGEFD2 effect in neuronal morphology. Immunofluorescence images of PC12 cells co-transfected with HA-TrioGEFD2 and either GFP-TRIPα (panels d, e, f) or GFP alone panels a, b, c) are shown. After 48 hours of expression, cells were treated for 16 hours with NGF (nerve growth factor) (50 ng/ml) and fixed. Expression of GFP and GFP-TRIPα was directly visualised (a, d) whereas overexpressed TrioGEFD2 was detected using the 12CA5 anti-HA antibody followed by AMCA-conjugated anti-mouse IgG (b, e). Filamentous actin was stained with Rhodamine-conjugated Phalloidin (c, f). Scale bar: 20 μm.
(§1) Cells were transfected with HA-tagged TrioGEFD2 (left side of the figure), myc-tagged KalGEFD2 (middle of the figure) or RhoAV14 (a constitutively active mutant of RhoA) (right side of the figure), and with either GFP-TRIPα (white bars), GFP-TRIPβ (hatched bars) or GFP alone (black bars). Cells were processed as described in FIG. 5C and the number of co-transfected cells with neurites was counted.
(§2) Numerous reports have established Rho-GTPases as key regulators of neuronal morphology (Luo, 2000). In neuronal cell lines, activation of RhoG, Rac and Cdc42 induces neurite outgrowth, while RhoA stimulation antagonises this effect by promoting neurite retraction (Katoh et al., 2000; Kozma et al., 1997; Yamaguchi et al., 2001). The PC12 cell line is a useful cellular model for studying Nerve Growth Factor (NGF)-induced neuronal differentiation. PC12-E2 cells were plated on collagen-coated 12 mm coverslips as described previously (Estrach et al., 2002) and transfected with the Lipofectamine Plus reagent (Life Technologies) according to the manufacturer's instructions. After transfection and differentiation with NGF (Promega, 50 ng/ml in DMEM medium supplemented with 0.5% horse serum (HS)) for 16 hours, PC12 cells were fixed and permeabilised as described (Estrach et al., 2002). […] Images were recorded using a Hamamatsu CCD camera. All transfections were repeated at least three times, and an average of 200 cells was counted each time. […]

KalGEFD2 in PC12 cells = test: NGF-induced neurite outgrowth in PC12 cells expressing KalGEFD2; details: PC12 co-transfected with KalGEFD2, NGF 50 ng/ml
From the text: as §1
as §2, with “instructions.” for “instructions. After transfection and differentiation with NGF (Promega, 50 ng/ml in DMEM medium supplemented with 0.5% horse serum (HS)) for 16 hours, PC12 cells were fixed and permeabilised as described (Estrach et al., 2002).”

[2] = system: TrioGEFD2-mediated RhoA activation; test: RhoA activity assay (Rhotekin RBD pull-down) in COS cells; details: COS cells co-transfected, 48 hours
From the text: FIG. 5B represents the inhibitory effect of TRIPα on TrioGEFD2-mediated RhoA activation in intact cells using the RhoA activity assay, COS cells were transfected with GFP-TRIPα (left line), TrioGEFD2 (middle line) or both (right line). Cell lysates were subjected to GST-pulldown using the recombinant RBD (RhoA binding domain) fragment of the RhoA-specific effector Rhotekin. The presence of the GTP-bound form of RhoA and of the total RhoA protein was detected using a monoclonal anti-RhoA antibody and is represented in the upper two panels. GFP-TRIPα and TrioGEFD2 expression in the cell lysates is shown in the lower two panels.
Quantification of the RhoA activity assay is shown in the right part of the figure. The y-axis represents the ratio between active RhoA and total RhoA, in arbitrary units.
The Inventors then wanted to assess the inhibition by TRIPα of TrioGEFD2-mediated activation of endogenous RhoA in intact cells. To do so, the RhoA activity assay was used to detect the active GTP-bound form of RhoA (Ren et al., 1999). Briefly, COS cells were transfected as described in FIG. 5A with TrioGEFD2 in absence or in the presence of GFP-TRIAPα. 48 hours after transfection, cell lysates were subjected to GST-pull down using 20 μg of the recombinant RBD (RhoA binding domain) fragment of the RhoA-specific effector Rhotekin, that binds only to the activated GTP-bound form of RhoA.

[3] = system: NGF-differentiated PC12 cells; test: Serum-induced neurite retraction; details: 15 min after serum (10% HS and 5% FCS); NGF 50 ng/ml 16 hours
Method: FIG. 6A represents histograms quantifying the effects of GFP-TRIPα or GFP on serum induced neurite retraction in NGF-differentiated PC12 cells. The X-axis represents the time after serum addition in minutes and the Y-axis represents the percentage of transfected cells with neurites.
Cells were transfected with GFP-TRIPα (white bars) or GFP (black bars) and differentiated with NGF (50 ng/ml). Serum was added and neurite retraction was followed for 15 minutes. The number of transfected cells with neurites was counted from at least 200 cells in 3 independent experiments.
(§3) Since Trio is an activator of RhoA and is expressed in PC12 cells (Estrach et al., 2002), it was analysed whether TRIPα could interfere with serum-induced neurite retraction in NGF-differentiated PC12 cells. […] After NGF treatment, cells were subjected to serum addition (DMEM medium supplemented with 10% HS and 5% fetal calf serum (FCS)) from 0 to 15 min (FIG. 6A). Cells were then fixed and permeabilised (Estrach et al., 2002) and observed as described in FIG. 5. Cells with neurites are defined as cells with neurites of at least twice the length of the cell body.

PC12 cells = test: NGF-induced neurite outgrowth; details: NGF 50 ng/ml, 1 to 24 hours
Method: PC12 were transfected with GFP-TRIPα (lack squares) or GFP (white diamonds) and subjected to a time-course exposure to NGF (50 ng/ml). At each time-point cells were fixed and the number of transfected cells with neurites was counted from at least 200 cells.
as §3
However, since the NGF treatment was performed for 16 hours, it was still possible that the effect of TRIPα on the NGF-differentiation signal was masked by the long NGF exposure. To test this hypothesis, PC12 cells expressing GFP-TRIPα or […] were subjected to a time-course exposure to NGF (50 ng/ml) for 1 to 24 hours.

## GFP-TRIPα: variable region of TRIAPα (TRIPα) fused to GFP, expressed from pEGFP-C3 plasmid (AREGADGAICGYNLATLVMLGPSERVFCPLCEPCSSDIYELM; cysteine pairing not given here; also: fused to GFP (carrier not in chain))
[1]
  Reversion of TrioGEFD2 inhibition of NGF-induced neurite outgrowth: reverted the Trio-dependent inhibition
  percentage of co-transfected cells with neurites: 45%
KalGEFD2 in PC12 cells
  Effect on KalGEFD2 inhibition of NGF-induced neurite extension: similarly inhibited by KalGEFD2 either with or without
[2]
  Inhibition of TrioGEFD2-mediated RhoA activation in intact cells: significantly inhibited
[3]
  percentage of transfected cells with neurites after serum addition: 32%
PC12 cells
  Effect on NGF-induced neurite outgrowth, time course: responded to NGF treatment more quickly than the control cells
